The first test has as its system Daudi cells. The experiment in a line: Inhibition of human Daudi lymphoma cell proliferation (Cell-Titer Glo). Type of test: cell-based. The conditions noted are these: 3 days incubation, read-out: Anti-Proliferative Activity Against Daudi cells IC50. How it is done:
Introduction of the experimental principle: After the RAD51 inhibitor to be tested was co-incubated with cancer cells for a period of time, the influence of the test compound on cell proliferation was measured by a method for counting cell proliferation based on the quantitative measurement of intracellular ATP content.
Materials and Cells: Daudi cells were purchased from ATCC; fetal bovine serum, 1640 medium and penicillin-streptomycin were purchased from Gibco Inc. (U.S.), 96-well plates were purchased from Corning Inc. (U.S.), and Cell-Titer Glo reagent was purchased from Promega Corporation (U.S.).
Cell culture: Daudi cells were cultured in 1640 culture medium containing 10% fetal bovine serum and 1% penicillin-streptomycin at 37° C. in an atmosphere containing 5% CO2. Cells in logarithmic growth phase could be used for experiments.
Assay of cell proliferation and viability: Cell-Titer Glo reagent was used to measure the inhibitory activities of the compounds on the proliferation of Daudi cell strain. The concentration of cells was adjusted, and the cells were seeded in a 96-well plate and cultured at 37° C. in an atmosphere containing 5% CO2 for 24 hours. The powder of the compound was dissolved in 100% DMSO to form a 10 mM solution. 10 μl of the solution of the compound was aspirated and transferred into a 96-well compound plate containing 20 μl of DMSO solution for 3-fold dilution and was then formulated into 10 serial dilutions. Thereafter, 2 μl of the solution of the compound was aspirated from the corresponding well and added correspondingly into a 96-well intermediate compound dilution plate containing 78 μl of complete culture medium in each well. The resultant was mixed well, and the plate was centrifuged at 1000 rpm for 1 minute. Finally, 10 μl of the solution of the compound was aspirated from the corresponding well of the 96-well intermediate compound dilution plate, and transferred into the corresponding well of the cell culture plate containing 90 μl of complete culture medium. The final concentration of DMSO was 0.25%. After the addition of the compound, the cells were continued to be incubated for 3 days at 37° C. in an atmosphere containing 5% CO2. Cell-Titer Glo reagent was added to measure cell viability.
% Compound inhibition was calculated and IC50 of the compound was filled;
% Compound inhibition=1−100%×(Signal−Bottom)/(Top−Bottom)
For orientation: IC50 means the concentration that gives 50% inhibition. With `COc1ccc(-c2ccc(-c3cnc([C@H]4CC[C@H](NC(=O)OC(C)C)CC4)s3)c([S@](=N)(=O)C3CC3)c2)cn1` (stereo in doubt) [Example 94-1, isopropyl trans-((4-(5-(2-((R)-cyclopropanesulfonimidoyl))-4-(6-methoxypyridin-3-yl)phenyl)thiazol-2-yl)cyclohexyl)carbamate], the IC50 came to 0.06 µM.

Staying with this test, now noted: Homo sapiens, 72 h, 3 days incubation, read-out: Anti-Proliferative Activity Against Daudi cells IC50.
`CC(C)OC(=O)N[C@H]1CC[C@H](c2ncc(-c3ccc(Oc4ccccn4)cc3S(=O)(=O)C3CC3)s2)CC1` [Example 83, isopropyl trans-(4-(5-(2-(cyclopropylsulfonyl)-4-(pyridin-2-yloxy)phenyl)thiazol-2-yl)cyclohexyl)carbamate]: the half-maximal inhibitory concentration (IC50) was 0.2 µM.
Regarding `COc1ccc(Nc2ccc(-c3cnc([C@H]4CC[C@H](NC(=O)OC(C)C)CC4)s3)c(S(=O)(=O)C3CC3)c2)nc1` [Example 78, isopropyl trans-(4-(5-(2-(cyclopropylsulfonyl)-4-((5-methoxypyridin-2-yl)amino)phenyl)thiazol-2-yl)cyclohexyl)carbamate], the IC50 turned out to be 0.004 µM.
On to `CC(C)OC(=O)N[C@H]1CC[C@H](c2ncc(-c3ccc(Nc4nnco4)cc3S(=N)(=O)C3CC3)s2)CC1` (stereo partly drawn) [Example 100, isopropyl trans-(4-(5-(4-((1,3,4-oxadiazol-2-yl)amino)-2-(cyclopropanesulfonimidoyl)phenyl)thiazol-2-yl)cyclohexyl)carbamate], for which the half-inhibitory concentration (IC50) was 0.68 µM.
The same measure, in the same setting: the value for `CC(C)OC(=O)Nc1ccc(-c2cnc([C@H]3CC[C@H](NC(=O)OC(C)C)CC3)s2)c(S(=O)(=O)CC(C)(C)C)c1` [Example 24, isopropyl trans-N-[3-(2,2-dimethylpropylsulfonyl)-4-[2-[4-(isopropoxycarbonylamino)cyclohexyl]thiazol-5-yl]phenyl]carbamate] was 2.27 µM; that for `CC(C)OC(=O)Nc1ccc(-c2cnc(N3CCC4(CC3)CN(C(=O)OC(C)C)C4)s2)c(S(=O)(=O)NC(C)(C)C)c1` [Example 8, isopropyl 7-(5-(2-(N-(tert-butyl)sulfamoyl)-4-((isopropoxycarbonyl)amino)phenyl)thiazol-2-yl)-2,7-diazaspiro[3.5]nonane-2-carboxylate] was 3.95 µM; that for `Cc1cc(Nc2ccc(-c3nc4c(s3)CCN(C(=O)OC(C)C)CC4)c(S(=O)(=O)C3CC3)c2)n[nH]1` [Example 108, isopropyl 2-(2-(cyclopropylsulfonyl)-4-((5-methyl-1H-pyrazol-3-yl)amino)phenyl)-7,8-dihydro-4H-thiazolo[4,5-d]aza-6(5H)-carboxylate] was 0.468 µM.
Take `Cc1cc(Nc2ccc(-c3cnc([C@H]4CC[C@H](NC(=O)OC(C)C)CC4)s3)c(S(=O)(=O)C3CC3)c2)n(C)n1` [Example 116, isopropyl trans-(4-(5-(2-(cyclopropylsulfonyl)-4-((1,3-dimethyl-1H-pyrazol-5-yl)amino)phenyl)thiazol-2-yl)cyclohexyl)carbamate]: the concentration for half-maximal inhibition (IC50) turned out to be 0.004 µM.
Consider `CN=S(=O)(c1cc(Nc2cc(C)[nH]n2)ccc1-c1cnc([C@H]2CC[C@H](NC(=O)OC(C)C)CC2)s1)C1CC1` (stereo partly drawn) [Example 97, isopropyl trans-(4-(5-(4-((5-methyl-1H-pyrazol-3-yl)amino)-2-(N-methylcyclopropanesulfonimidoyl)phenyl)thiazol-2-yl)cyclohexyl)carbamate], for which the IC50 was 0.29 µM.
In the case of `CC(C)OC(=O)N[C@H]1CC[C@H](c2ncc(-c3ccc(N4CCCO4)cc3S(=O)(=O)C3CC3)s2)CC1` [Example 73, isopropyl trans-N-[4-[5-(2-cyclopropylsulfonyl-4-isoxazolidin-2-yl-phenyl)thiazol-2-yl]cyclohexyl]carbamate], the IC50 turned out to be 0.2 µM.
For `Cc1cc(Nc2ccc(-c3ccc([C@H]4CC[C@@H](NC(=O)OC(C)C)CC4)s3)c(S(=O)(=O)C3CC3)c2)n[nH]1` [Example 89-1, isopropyl cis-(4-(5-(2-(cyclopropylsulfonyl)-4-((5-methyl-1H-pyrazol-3-yl)amino)phenyl)thiophen-2-yl)cyclohexyl)carbamate], the 50% inhibitory concentration (IC50) was 0.127 µM.
On the same count and under the same terms, the value for `CC(C)OC(=O)N[C@H]1CC[C@H](c2ncc(-c3ccc(Nc4ncccn4)cc3S(=O)(=O)C3CC3)s2)CC1` [Example 79, isopropyl trans-(4-(5-(2-(cyclopropylsulfonyl)-4-(pyrimidin-2-ylamino)phenyl)thiazol-2-yl)cyclohexyl)carbamate] was 0.051 µM; that for `CC(C)OC(=O)N[C@H]1CC[C@H](c2ncc(-c3ccc(Nc4ccc(F)cn4)cc3S(=O)(=O)C3COC3)s2)CC1` [Example 112, isopropyl trans-N-[4-[5-[4-[(5-fluoro-2-pyridyl)amino]-2-(oxetan-3-ylsulfonyl)phenyl]thiazol-2-yl]cyclohexyl]carbamate] was 0.017 µM; that for `CC(C)OC(=O)N[C@H]1CC[C@H](c2ncc(-c3ccc(Nc4ccc(=O)[nH]c4)cc3S(=O)(=O)C3CC3)s2)CC1` [Example 96, isopropyl trans-(4-(5-(2-(cyclopropylsulfonyl)-4-((6-oxo-1,6-dihydropyridin-3-yl)amino)phenyl)thiazol-2-yl)cyclohexyl)carbamate] was 0.14 µM.
In the case of `Cc1cc(Nc2ccc(-c3cnc([C@H]4CC[C@H](NC(=O)OC(C)C)CC4)s3)c(S(=N)(=O)C3COC3)c2)n[nH]1` (stereo partly drawn) [Example 105, isopropyl trans-N-[4-[5-[4-[(5-methyl-1H-pyrazol-3-yl)amino]-2-(oxetan-3-ylsulfonimidoyl)phenyl]thiazol-2-yl]cyclohexyl]carbamate], the IC50 came to 0.026 µM.
For `CC(C)OC(=O)Nc1ccc(-c2cnc(C3CCC(NC(=O)OC(C)C)CC3)s2)c(S(C)(=O)=NC2CC2)c1` (stereo not drawn) [Example 43, isopropyl trans-N-[3-(N-cyclopropyl-S-methyl-sulfonimidoyl)-4-[2-[4-(isopropoxycarbonylamino)cyclohexyl]thiazol-5-yl]phenyl]carbamate], the IC50 is 1.58 µM.
With `COc1ccc(Nc2ccc(-c3cnc([C@H]4CC[C@H](NC(=O)OC(C)C)CC4)s3)c(S(=O)(=O)C3COC3)c2)cn1` [Example 113, isopropyl trans-N-[4-[5-[4-[(6-methoxy-3-pyridyl)amino]-2-(oxetan-3-ylsulfonyl)phenyl]thiazol-2-yl]cyclohexyl]carbamate], the half-inhibitory concentration (IC50) worked out at 0.016 µM.
Turning to `Cc1cc(Nc2ccc(-c3cnc([C@H]4CC[C@H](NC(=O)OC(C)C)CC4)[nH]3)c(S(=O)(=O)C3CC3)c2)n[nH]1` [Example 90], the 50% inhibitory concentration (IC50) turned out to be 8.8 µM.
`Cc1cc(Nc2ccc(-c3ncc([C@H]4CC[C@H](NC(=O)OC(C)C)CC4)s3)c(S(=O)(=O)C3CC3)c2)n[nH]1` [Example 91, isopropyl trans-(4-(2-(2-(cyclopropylsulfonyl)-4-((5-methyl-1H-pyrazol-3-yl)amino)phenyl)thiazol-5-yl)cyclohexyl)carbamate]: the IC50 was 1.5 µM.
Regarding `CC(C)OC(=O)Nc1ccc(-c2cnc(N3CCCC(NC(=O)OC(C)C)CC3)s2)c(S(=O)(=O)NC(C)(C)C)c1` (stereo not shown) [Example 11, isopropyl N-[3-(tert-butylsulfamoyl)-4-[2-[4-(isopropoxycarbonylamino)azepan-1-yl]thiazol-5-yl]phenyl]carbamate], the half-inhibitory concentration (IC50) was 2.54 µM.
As to `CCNC(=O)c1ccc(-c2cnc([C@H]3CC[C@H](NC(=O)OC(C)C)CC3)s2)c(S(=O)(=O)C2CC2)c1` [Example 111, isopropyl trans-(4-(5-(2-(cyclopropylsulfonyl)-4-(ethylcarbamoyl)phenyl)thiazol-2-yl)cyclohexyl)carbamate], the half-maximal inhibitory concentration (IC50) came out at 0.7 µM.
In the case of `Cc1cc(Nc2ccc(-c3cnc([C@H]4CC[C@H](NC(=O)OC(C)C)CC4)s3)c(S(=O)(=O)C(F)(F)F)c2)n[nH]1` [Example 51, isopropyl trans-N-[4-[5-[4-[(5-methyl-1H-pyrazol-3-yl)amino]-2-(trifluoromethylsulfonyl)phenyl]thiazol-2-yl]cyclohexyl]carbamate], the half-maximal inhibitory concentration (IC50) worked out at 0.065 µM.
As to `CC(C)OC(=O)N[C@H]1CC[C@H](c2ncc(-c3ccc(Nc4cn[nH]c4)cc3S(=O)(=O)C3CC3)s2)CC1` [Example 71], the concentration for half-maximal inhibition (IC50) amounted to 0.016 µM.
As to `Cc1cc(Nc2ccc(-c3cnc(C4CCC(NC(=O)OC(C)C)CC4)s3)c([S+]([O-])C3CC3)c2)n[nH]1` (stereo not drawn) [Example 52, isopropyl trans-N-[4-[5-[2-cyclopropylsulfinyl]-4-[(5-methyl-1H-pyrazol-3-yl)amino]phenyl]thiazol-2-yl]cyclohexyl]carbamate], the IC50 is 0.08 µM.
On to `Cc1cc(Nc2ccc(-c3cnc(-c4ccc(NC(=O)OC(C)C)cc4)s3)c(S(=O)(=O)C3CC3)c2)n[nH]1` [Example 61], for which the half-inhibitory concentration (IC50) was determined as 0.104 µM.

For the origin of these results see patent US20230142274A1 (SIMCERE PHARMACEUTICAL CO., LTD., priority 2020, published 2023).
